Columns and labels:
MM.1S cells [1] = assay: Proliferation / growth rate inhibition assay; assay type: cell-based; settings: for antiproliferative activity / toxicity, single agent: comparator inhibitors, single-agent treatment
MM.1S cells [2] = assay: Apoptosis; assay type: cell-based; settings: PARP cleavage, caspase 3 cleavage, Annexin V/PI staining
JNK2 [3] = biological target: T1, JNK2 (Homo sapiens, UniProt P45984); assay: Pull-down competition assay with biotin-JNK-IN-7, JNK2; assay type: cell-based; settings: MM.1S cells, 6 h; both JNK1 and JNK2
Target sequence in this assay (P45984 whole entry): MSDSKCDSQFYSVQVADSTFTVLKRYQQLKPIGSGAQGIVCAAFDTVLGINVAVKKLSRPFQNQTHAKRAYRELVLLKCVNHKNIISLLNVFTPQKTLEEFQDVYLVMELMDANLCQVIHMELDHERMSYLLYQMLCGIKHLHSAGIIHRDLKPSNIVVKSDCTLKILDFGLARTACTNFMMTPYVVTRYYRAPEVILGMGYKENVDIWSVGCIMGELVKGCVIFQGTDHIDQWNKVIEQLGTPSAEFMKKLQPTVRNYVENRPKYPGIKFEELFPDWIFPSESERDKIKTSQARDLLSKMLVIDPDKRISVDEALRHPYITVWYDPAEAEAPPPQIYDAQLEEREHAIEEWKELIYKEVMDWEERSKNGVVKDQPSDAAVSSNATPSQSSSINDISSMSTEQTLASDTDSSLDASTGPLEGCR

JNK2 [4] = biological target: T1, JNK2; assay: PhosphoSens kinetic assay; assay type: biochemical; settings: JNK1 and JNK2
Target sequence in this assay (P45984 whole entry): as above

[5] = system: Bortezomib-resistant ANBL6 cells; assay: Antiproliferative assay, Bortezomib-resistant ANBL6; assay type: cell-based; settings: parental ANBL6 and Bortezomib-resistant ANBL6 cells
[6] = system: panel of more than 400 kinases; assay: Kinome-wide selectivity panel; settings: strong binding to EGFR, CK1, DDR1, CDK7, Aurora A and B
JNK2 [7] = biological target: T1, JNK2; assay: Z′-Lyte fixed time point kinase assay, JNK2; settings: fixed time point biochemical kinase assay
Target sequence in this assay (P45984 whole entry): as above

JNK2 [8] = biological target: T1, JNK2; assay: Mass labeling of recombinant JNK2 protein; assay type: binding; settings: room temperature, 60 min incubation; trypsin digest, CE-MS/MS
Target sequence in this assay (P45984 4-364): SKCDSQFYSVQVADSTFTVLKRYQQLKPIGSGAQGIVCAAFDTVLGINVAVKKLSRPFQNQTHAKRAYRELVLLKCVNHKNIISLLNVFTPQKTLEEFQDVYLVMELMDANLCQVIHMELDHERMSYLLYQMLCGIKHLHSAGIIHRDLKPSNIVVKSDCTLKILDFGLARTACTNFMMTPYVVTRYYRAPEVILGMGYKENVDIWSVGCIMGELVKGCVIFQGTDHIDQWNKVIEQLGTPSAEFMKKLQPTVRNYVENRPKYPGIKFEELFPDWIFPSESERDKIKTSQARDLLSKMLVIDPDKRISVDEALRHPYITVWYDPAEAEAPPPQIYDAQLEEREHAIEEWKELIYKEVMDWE

PIKFYVE = PIKFYVE (Homo sapiens, UniProt Q9Y2I7); assay: PIKFYVE NanoBRET target engagement assay; assay type: cell-based; settings: transfected HEK293T cells, 3 h
Chain of PIKFYVE (Q9Y2I7 whole entry): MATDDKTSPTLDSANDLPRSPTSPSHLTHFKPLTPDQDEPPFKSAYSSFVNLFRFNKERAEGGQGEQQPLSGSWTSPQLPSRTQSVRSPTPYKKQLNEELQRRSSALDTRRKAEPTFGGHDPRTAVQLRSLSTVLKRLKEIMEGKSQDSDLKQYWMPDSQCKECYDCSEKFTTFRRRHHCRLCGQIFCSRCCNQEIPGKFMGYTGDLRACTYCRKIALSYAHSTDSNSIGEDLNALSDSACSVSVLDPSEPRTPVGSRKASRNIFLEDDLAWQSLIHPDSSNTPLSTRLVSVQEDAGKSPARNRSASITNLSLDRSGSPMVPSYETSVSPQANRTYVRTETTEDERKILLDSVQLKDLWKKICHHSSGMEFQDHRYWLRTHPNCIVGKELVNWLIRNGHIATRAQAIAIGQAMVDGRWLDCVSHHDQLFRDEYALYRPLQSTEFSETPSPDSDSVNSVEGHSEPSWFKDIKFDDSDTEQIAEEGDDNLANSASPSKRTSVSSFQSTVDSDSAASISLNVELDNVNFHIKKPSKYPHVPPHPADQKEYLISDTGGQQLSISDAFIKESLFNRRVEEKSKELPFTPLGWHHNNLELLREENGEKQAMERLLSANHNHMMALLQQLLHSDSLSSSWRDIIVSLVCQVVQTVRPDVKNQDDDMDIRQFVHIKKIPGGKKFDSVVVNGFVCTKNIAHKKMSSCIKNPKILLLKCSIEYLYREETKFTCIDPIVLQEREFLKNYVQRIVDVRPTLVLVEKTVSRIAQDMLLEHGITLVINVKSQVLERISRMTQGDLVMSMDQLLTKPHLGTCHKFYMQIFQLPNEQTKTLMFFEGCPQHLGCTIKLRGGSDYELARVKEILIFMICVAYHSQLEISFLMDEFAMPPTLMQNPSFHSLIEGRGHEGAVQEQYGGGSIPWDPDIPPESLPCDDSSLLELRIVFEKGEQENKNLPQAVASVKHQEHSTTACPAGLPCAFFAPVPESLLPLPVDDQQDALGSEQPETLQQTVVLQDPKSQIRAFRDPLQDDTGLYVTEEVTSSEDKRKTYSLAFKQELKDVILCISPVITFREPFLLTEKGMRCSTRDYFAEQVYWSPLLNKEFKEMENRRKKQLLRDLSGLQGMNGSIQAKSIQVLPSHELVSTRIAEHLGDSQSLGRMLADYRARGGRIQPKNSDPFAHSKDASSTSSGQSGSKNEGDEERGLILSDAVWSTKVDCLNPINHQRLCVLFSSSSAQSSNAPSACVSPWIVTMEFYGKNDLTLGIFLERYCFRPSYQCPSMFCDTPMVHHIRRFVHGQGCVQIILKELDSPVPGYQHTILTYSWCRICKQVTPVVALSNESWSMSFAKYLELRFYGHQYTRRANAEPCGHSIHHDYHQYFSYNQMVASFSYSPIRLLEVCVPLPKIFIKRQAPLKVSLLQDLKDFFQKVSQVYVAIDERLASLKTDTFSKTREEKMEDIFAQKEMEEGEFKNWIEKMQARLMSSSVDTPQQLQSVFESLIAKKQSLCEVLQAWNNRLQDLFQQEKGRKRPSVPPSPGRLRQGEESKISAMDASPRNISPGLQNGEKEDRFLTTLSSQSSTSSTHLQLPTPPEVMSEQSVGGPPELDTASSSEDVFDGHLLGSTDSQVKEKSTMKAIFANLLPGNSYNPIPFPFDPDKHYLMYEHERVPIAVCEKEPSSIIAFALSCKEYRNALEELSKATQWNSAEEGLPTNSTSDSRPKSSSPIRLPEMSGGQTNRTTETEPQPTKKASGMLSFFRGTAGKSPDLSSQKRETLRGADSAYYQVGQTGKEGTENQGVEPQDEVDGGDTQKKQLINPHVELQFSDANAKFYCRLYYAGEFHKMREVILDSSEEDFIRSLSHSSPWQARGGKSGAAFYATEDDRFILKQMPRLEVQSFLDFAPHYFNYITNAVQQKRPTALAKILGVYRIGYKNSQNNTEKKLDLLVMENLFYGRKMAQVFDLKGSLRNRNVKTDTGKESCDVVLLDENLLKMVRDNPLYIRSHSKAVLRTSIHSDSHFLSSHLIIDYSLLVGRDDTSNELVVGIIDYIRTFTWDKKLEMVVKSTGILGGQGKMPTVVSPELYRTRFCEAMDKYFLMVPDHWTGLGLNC

MDA-MB-231 cells = assay: Vacuole formation; assay type: cell-based
JNK1 = JNK1 (Homo sapiens, UniProt P45983); assay: JNK1 NanoBRET target engagement assay; assay type: cell-based; settings: HEK293T cells; compared with JNK-IN-8
Chain of JNK1 (P45983 whole entry): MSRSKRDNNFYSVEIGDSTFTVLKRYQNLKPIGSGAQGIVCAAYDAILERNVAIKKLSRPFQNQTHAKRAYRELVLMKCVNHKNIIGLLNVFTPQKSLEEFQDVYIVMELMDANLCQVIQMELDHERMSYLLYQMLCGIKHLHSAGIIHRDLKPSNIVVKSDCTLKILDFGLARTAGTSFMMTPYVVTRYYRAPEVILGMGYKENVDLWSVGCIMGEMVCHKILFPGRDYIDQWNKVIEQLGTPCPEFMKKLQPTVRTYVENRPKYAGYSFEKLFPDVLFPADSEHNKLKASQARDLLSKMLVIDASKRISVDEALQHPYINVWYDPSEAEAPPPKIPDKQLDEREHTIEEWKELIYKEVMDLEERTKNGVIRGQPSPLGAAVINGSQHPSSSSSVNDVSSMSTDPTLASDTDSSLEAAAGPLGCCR

[9] = system: HAP1 parental cells and JNK2-knockout cell lines; assay: Antiproliferative activity in HAP1 parental and JNK2-knockout cells; assay type: cell-based

SMILES: O[C@H]1CC[C@H](Nc2ncc3nc(Nc4c(F)cc(F)cc4F)n([C@H]4CCOC4)c3n2)CC1 [CC930]
- protection from YL5084-mediated cell killing (MM.1S cells [1]; 10 μM pretreatment, MM.1S cells): did not protect
- antiproliferative activity / toxicity, single agent (MM.1S cells [1]): did not exhibit antiproliferative activity even at micromolar concentrations

SMILES: Cc1cc(NC(=O)c2cccc(NC(=O)/C=C/CN(C)C)c2)ccc1Nc1nccc(-c2cccnc2)n1 [JNK-IN-8]
- induction of apoptosis (MM.1S cells [2]): failed to induce apoptotic cell death to the same level
- engagement of JNK1 and JNK2 in pull down (JNK2 [3]): engaged both JNK1 and JNK2 at the same concentration
- potency JNK2 versus JNK1 in kinetic assay (JNK2 [4]): almost equipotent against both
- antiproliferative effect in ANBL6 cells [5]: minimal effect

SMILES: CN(C)C/C=C/C(=O)Nc1ccc(C(=O)Nc2cccc(Nc3nccc(-c4c(-c5ccccc5)nn5ccccc45)n3)c2)cc1 [THZ-3–60-1]
- kinome-wide selectivity [6]: poor kinome-wide selectivity
- selectivity JNK2 versus JNK1 (JNK2 [7]): exhibited selectivity for JNK2 versus JNK1

SMILES: O=c1ncn2nc(Sc3ccc(F)cc3F)ccc2c1-c1c(Cl)cccc1Cl [VX745]
- antiproliferative activity / toxicity, single agent (MM.1S cells [1]): not toxic

SMILES: CN(C)C/C=C/C(=O)Nc1ccc(C(=O)N2CC[C@H](Nc3nccc(-c4c(-c5ccccc5)nn5ccccc45)n3)C2)cc1 [YL2056, (S,E)-4-(Dimethylamino)-N-[4-(3-{[4-(2-phenylpyrazolo[1,5-a]pyridin-3-yl)pyrimidin-2-yl]amino}pyrrolidine-1-carbonyl)phenyl]but-2-enamide]
- covalent modification site on JNK2 (JNK2 [8]): exclusive modification on JNK2 Cys116
- PIKFYVE binding in NanoBRET (PIKFYVE): binds to PIKFYVE more strongly than its reversible counterpart
- vacuole formation (MDA-MB-231 cells; MDA-MB-231, phenotype of PIKFYVE inhibition): induced

SMILES: C[C@H]1CN(C(=O)c2ccc(NC(=O)/C=C/CN(C)C)cc2)C[C@H]1Nc1nccc(-c2c(-c3ccccc3)nn3ccccc23)n1 [YL5084, (E)-4-(Dimethylamino)-N-[4-((3S,4S)-3-methyl-4-{[4-(2-phenylpyrazolo[1,5-a]pyridin-3-yl)pyrimidin-2-yl]amino}pyrrolidine-1-carbonyl)phenyl]but-2-enamide]
- induction of apoptosis (MM.1S cells [2]): induced apoptosis
- JNK1 engagement in NanoBRET (JNK1): significantly less engagement of JNK1
- GR50 (antiproliferative) (MM.1S cells [1]; multiple myeloma (MM) cell lines, 72 h): 200 to 300 nM
- vacuole formation (MDA-MB-231 cells; up to a concentration of 4 μM): did not induce vacuole formation
- antiproliferative activity, parental vs JNK2-knockout [9]: equipotent antiproliferative activity

SMILES: C[C@H]1CN(C(=O)c2ccc(NC(=O)CCCN(C)C)cc2)C[C@H]1Nc1nccc(-c2c(-c3ccccc3)nn3ccccc23)n1 [YL5084R, 4-(Dimethylamino)-N-[4-((3S,4S)-3-methyl-4-{[4-(2-phenylpyrazolo[1,5-a]pyridin-3-yl)pyrimidin-2-yl]amino}pyrrolidine-1-carbonyl)phenyl]butanamide]
- fold weaker antiproliferative activity than YL5084 (MM.1S cells [1]; multiple myeloma (MM) cell lines, GR50): 15 fold

Source: PMC11190964 (Journal of medicinal chemistry, 2023)
